According to patent US6716833B2, “Acetylenic α-amino acid-based sulfonamide hydroxamic acid tace inhibitors” (priority 1999, dated 2004):
Where two headings read alike, the source gives them in different places.

Assays:
THP-1 cells = test: THP-1 soluble protein assay, soluble TNF-α (ELISA); assay type: cell-based, human; settings: for inhibition at 3 µM: Homo sapiens, THP-1, 3 μM, read-out: THP % Inhibition @ 3 μM
MMP-13 = MMP-13 (Homo sapiens, UniProt P45452); test: MMP-13 inhibition (thiopeptide or fluorescent peptide substrate); assay type: biochemical; settings: read-out: MMP-13 IC50
MMP-9 = MMP-9 (Homo sapiens, UniProt P14780); test: MMP-9 inhibition (thiopeptide or fluorescent peptide substrate); assay type: biochemical
[1] = target: TNF-α converting enzyme (TACE) (Homo sapiens, UniProt P78536); test: TACE inhibition (fluorescent peptidyl substrate); assay type: biochemical; settings: read-out: TACE IC50
MMP-1 = target: T1, MMP-1 (Homo sapiens, UniProt P03956); test: MMP-1 inhibition (thiopeptide or fluorescent peptide substrate); assay type: biochemical; settings: read-out: MMP-1 IC50
T1 sequence (P03956 100-469): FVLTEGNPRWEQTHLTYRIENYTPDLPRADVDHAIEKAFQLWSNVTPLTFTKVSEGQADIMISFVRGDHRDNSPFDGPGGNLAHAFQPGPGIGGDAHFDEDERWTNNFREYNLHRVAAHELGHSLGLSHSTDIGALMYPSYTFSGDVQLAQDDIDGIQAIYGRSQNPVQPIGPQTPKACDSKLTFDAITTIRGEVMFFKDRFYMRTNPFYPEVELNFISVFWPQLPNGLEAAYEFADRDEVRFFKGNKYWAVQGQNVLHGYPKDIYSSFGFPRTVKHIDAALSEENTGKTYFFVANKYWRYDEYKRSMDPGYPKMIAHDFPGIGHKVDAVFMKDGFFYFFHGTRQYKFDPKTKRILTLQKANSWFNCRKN

Sequence of TNF-α converting enzyme (TACE) (P78536 215-824, species assumed): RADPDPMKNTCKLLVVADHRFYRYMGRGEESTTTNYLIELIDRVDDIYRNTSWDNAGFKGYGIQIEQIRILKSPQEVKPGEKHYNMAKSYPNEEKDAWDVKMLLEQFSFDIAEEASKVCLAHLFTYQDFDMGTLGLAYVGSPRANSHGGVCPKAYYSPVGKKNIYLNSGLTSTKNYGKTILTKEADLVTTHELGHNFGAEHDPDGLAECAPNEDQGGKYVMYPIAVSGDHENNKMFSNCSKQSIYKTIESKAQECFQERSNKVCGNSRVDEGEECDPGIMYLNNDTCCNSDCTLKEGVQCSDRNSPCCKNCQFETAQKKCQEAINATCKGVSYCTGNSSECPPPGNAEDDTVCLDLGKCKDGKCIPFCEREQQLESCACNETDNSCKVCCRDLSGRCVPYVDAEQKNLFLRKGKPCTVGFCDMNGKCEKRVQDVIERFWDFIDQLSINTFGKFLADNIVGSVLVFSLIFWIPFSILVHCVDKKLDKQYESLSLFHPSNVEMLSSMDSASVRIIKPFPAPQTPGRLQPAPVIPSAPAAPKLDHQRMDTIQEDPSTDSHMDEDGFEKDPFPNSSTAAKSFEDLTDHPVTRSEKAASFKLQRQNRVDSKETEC
Sequence of MMP-9 (P14780 94-707): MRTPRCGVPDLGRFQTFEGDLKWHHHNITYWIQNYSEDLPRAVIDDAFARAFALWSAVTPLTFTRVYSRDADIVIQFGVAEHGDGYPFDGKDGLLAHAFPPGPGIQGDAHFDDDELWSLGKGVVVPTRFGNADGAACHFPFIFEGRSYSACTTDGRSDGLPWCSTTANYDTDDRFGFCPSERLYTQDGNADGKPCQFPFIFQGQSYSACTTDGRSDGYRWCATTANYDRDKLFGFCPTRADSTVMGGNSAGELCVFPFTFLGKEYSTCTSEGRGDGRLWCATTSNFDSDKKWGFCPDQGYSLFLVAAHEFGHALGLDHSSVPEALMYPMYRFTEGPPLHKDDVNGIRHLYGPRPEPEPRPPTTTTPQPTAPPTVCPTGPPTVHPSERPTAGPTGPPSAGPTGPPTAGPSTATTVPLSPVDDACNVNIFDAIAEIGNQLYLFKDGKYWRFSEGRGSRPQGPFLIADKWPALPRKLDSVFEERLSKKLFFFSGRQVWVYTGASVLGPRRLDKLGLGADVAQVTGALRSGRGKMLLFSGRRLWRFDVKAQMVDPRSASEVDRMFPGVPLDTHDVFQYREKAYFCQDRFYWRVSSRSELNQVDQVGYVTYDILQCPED

melting point [°C]	IC50 (MMP-13) [nM]	IC50 (MMP-9; read-out: MMP-9 IC50) [nM]	IC50 [1] [nM]	IC50 (MMP-1) [nM]	Compound	inhibition at 3 µM (THP-1 cells; THP-1 cells) [%]	inhibition at 3 µM (THP-1 cells; Table 10) [%]	IC50 (MMP-13; Table 10) [nM]	IC50 (MMP-9; MMP-9 IC50, Table 10) [nM]	IC50 ([1]; Table 10) [nM]	IC50 (MMP-1; Table 10) [nM]	THP % Inhibition @ 3 μM (THP-1 cells; THP-1 cells) [%]
92 to 95	8.3	138	19	310	CC#CCOc1ccc(S(=O)(=O)NC(C(=O)NO)C(C)(C)SCc2ccccc2)cc1 (centres unmarked) [Example 162]	49						
180 to 182	28	192	7.4	1040	CC#CCOc1ccc(S(=O)(=O)N[C@@H](C(=O)NO)C2CCC(O)CC2)cc1 (stereo partly drawn) [Example 129, (2R)-{[4-(2-Butynyloxy)phenyl]sulfonyl}amino-N-hydroxy-2-(4-hydroxycyclohexyl)ethanamide]	92						
46 to 50	42	424	12	852	CC#CCOc1ccc(S(=O)(=O)NC(C(=O)NO)C(C)(C)SCC)cc1 (centres unmarked) [Example 159, 2-[(4-but-2-ynyloxy-Benenesulfonyl)-amino]-N-hydroxy-3-methyl-3-ethylsulfanyl-butyramide]	76						
66 to 68	1270	3700	37	> 10000	CC#CCOc1ccc(S(=O)(=O)NC2(C(=O)NO)CCCC2)cc1 [Example 139, 1-({[4-(2-Butynyloxy)phenyl]sulfonyl}amino)-N-hydroxycyclopentanecarboxamide]	26						
82 to 84	619	2170	27	5170	CC#CCOc1ccc(S(=O)(=O)NC2(C(=O)NO)CCCCC2)cc1 [Example 138, 1-({[4-(2-Butynyloxy)phenyl]sulfonyl}amino)-N-hydroxycyclohexanecarboxamide]	19						
152 to 155	65	1010	15	1400	CC#CCOc1ccc(S(=O)(=O)NC(C(=O)NO)C(C)(C)SCCC)cc1 (centres unmarked) [Example 160, 2-[(4-but-2-ynyloxy-Benenesulfonyl)-amino]-N-hydroxy-3-methyl-3-propylsulfanyl-butyramide]	67						
	5.4	19	3.3	47	CC#CCOc1ccc(S(=O)(=O)N(C)[C@H](CSC)C(=O)NO)cc1 [Example 154]	90						
128 to 132	30	164	25	1020	CC#CCOc1ccc(S(=O)(=O)N[C@@H](C(=O)NO)C(C)(C)SC)cc1 [Example 158]	78						
					CC1(C)SCCN(S(=O)(=O)c2ccc(OCC#CCO)cc2)C1C(=O)NO (centres unmarked) [Example 61, 4-[4-(4-Hydroxy-but-2-ynyloxy)-benzenesulfonyl]-2,2-dimethyl-thiomorpholine-3-carboxylic Acid Hydroxyamide]		89	13	70	40	24	
	40	262	6	4390	CC#CCOc1ccc(S(=O)(=O)NC(C)C(=O)NO)cc1 (centres unmarked) [Example 30, 2-(4-but-2-ynyloxy-Benzenesulfonylamino)-N-hydroxy-propionamide]	60						
47 to 52	177	587	69	2430	CC#CCOc1ccc(S(=O)(=O)NC(C(=O)NO)C(C)(C)SCC(=O)OC(C)(C)C)cc1 (centres unmarked) [Example 165]	84						
	52	213	6.8	1740	CC#CCOc1ccc(S(=O)(=O)N[C@@H](C(=O)NO)[C@@H](C)CC)cc1 [Example 105, (2R,3S)-2-({[4-(2-Butynyloxy)phenyl]sulfonyl}amino)-N-hydroxy-3-methylpentanamide]	87						
72	20	204	64	1570	CC#CCOc1ccc(S(=O)(=O)NC(C(=O)NO)C(C)(C)SCCN2CCOCC2)cc1 (centres unmarked) [Example 164]	70						
112 to 115	47	306	18	1720	CC#CCOc1ccc(S(=O)(=O)NC(C(=O)NO)C(C)(C)SCc2nccn2C)cc1 (centres unmarked) [Example 163]	77						

Compound	melting point [°C]	IC50 (MMP-13) [nM]	IC50 (MMP-9; read-out: MMP-9 IC50) [nM]	IC50 [1] [nM]	IC50 (MMP-1) [nM]	inhibition at 3 µM (THP-1 cells; THP-1 cells) [%]	inhibition at 3 µM (THP-1 cells; Table 10) [%]	IC50 (MMP-13; Table 10) [nM]	IC50 (MMP-9; MMP-9 IC50, Table 10) [nM]	IC50 ([1]; Table 10) [nM]	IC50 (MMP-1; Table 10) [nM]	THP % Inhibition @ 3 μM (THP-1 cells; THP-1 cells) [%]
CC#CCOc1ccc(S(=O)(=O)N[C@@H](C(=O)NO)C(C)(C)C)cc1 [Example 106, (2R)-2-({[4-(2-Butynyloxy)phenyl]sulfonyl)amino)-N-hydroxy-3,3-dimethylbutanamide]		41	224	17	880	91						
CC#CCOc1ccc(S(=O)(=O)N(CC#CCN(CC)CC)C(C(=O)NO)C(C)C)cc1 (centres unmarked) [Example 126]		36	149	73	212							93
CC#CCOc1ccc(S(=O)(=O)N(C)C(C(=O)NO)C(C)(C)SCCN2CCCC2C(=O)OC)cc1 (centres unmarked) [Example 145]		2.5	7.1	109	18							83
